According to patent US12655101B2, “Small molecules with antibacterial activity” (NEW MEXICO TECH UNIVERSITY RESEARCH PARK CORPORATION, priority 2021, dated 2026):
In brackets after ≈: the same amount, converted by molar mass. Like-named read-outs stand apart in the source and are kept apart here.

Assays:
Assay type in all cases: cell-based
[1] = tested on: A. baumannii ATCC BAA-1797; assay: Colony counts of A. baumannii ATCC BAA-1797 treated with 4xMIC for 16 hours; conditions: 1 μg/mL PME, 1 mM PAO, compounds at 4xMIC
E. coli pUC18 = assay: Nitrocefin β-lactamase assay (outer membrane disruption); conditions: 10 μM melittin; 10 μg/mL PME; 6, 12, 24 μM Compound 25 and 26; 100 μM Compound 27; 50 μM Compound 15; 30 minutes
Experimental: E. coli pUC18 was grown from a glycerol stock by placing a small volume of cells onto a MHA plate. The MHA plate was incubated overnight at 37° C. A single colony was subsequently used to inoculate MHB+100 μg/mL ampicillin to obtain a bacterial broth suspension. The MHB broth suspension was grown at 37° C. on a rotary shaking incubator (100 rpm) for 12 hours. The cells were washed 3× by centrifuging and washing with 1 mL medium 200. The washed bacterial cell concentration was adjusted to ˜1×10^7 CFU/mL in medium 200 using OD at 595 nm. The cells were treated cells with 10 μM melittin; 6, 12, 24 μM Compound 25; 6 μM, 12 μM, 24 μM Compound 26; 100 μM Compound 27; 50 μM Compound 15; and 10 μg/mL PME. The cells were incubated at 37° C. for 30 minutes; added 50 μM nitrocefin and incubated 10 minutes at 37° C.
pUC18 E. coli carry an ampicillin resistance gene and produce β-lactamase.

E. coli pNMT41 = assay: 6-chloro-4-methyl-umbelliferyl-β-D-glucuronide assay for beta-glucuronidase (inner membrane disruption); conditions: 10 μg/mL PME
Experimental: E. coli pNMT 41 was grown from a glycerol stock by placing a small volume of cells onto a MHA plate. The MHA plate was incubated overnight at 37° C. A single colony was subsequently used to inoculate MHB+100 μg/mL ampicillin to obtain a bacterial broth suspension. The MHB broth suspension was grown at 37° C. on a rotary shaking incubator (100 rpm) for 12 hours. The bacterial cell concentration was adjusted to ˜1×10^7 CFU/mL in MHB using OD at 595 nm. The cells were washed 3× by spinning by centrifuge and washing with 500 μL medium 200. The cells were resuspended in 7 mL medium 200. The cells were treated with 10 μM melittin, 6, 12, 24, and 100 μM Compound 25, and 10 μg/mL PME. The cells were incubated at 37° C. for 30 minutes. 1 μM umbelliferyl was added, and the cells were incubated further for 10 minutes at 37° C.
The cells were then incubated at 37° C. for 45 minutes. 1 μM umbelliferyl was added, and the cells were incubated further for 10 minutes at 37° C.

S. aureus = assay: Evolution of resistance in S. aureus over 32 days; conditions: Staphylococcus aureus
Source text: Over a period of 32 days, S. aureus cells were exposed to sub-inhibitory concentrations of the indicated compound, norfloxacin, or oxacillin and sub-cultured at the newly emerged, sub-inhibitory concentration.

[2] = tested on: RecA-GFP fusion protein in E. coli MG1655; assay: Inhibition of norfloxacin-triggered RecA-GFP induction in E. coli MG1655; conditions: for killing of E. coli: PME or norfloxacin 30 minutes, then compound, 3.5 hours; for SOS response (RecA-GFP induction): norfloxacin-triggered, sub-potent Polymixin E to facilitate entry
Experimental: An increase in DNA damage-induced RecA protein expression is required for identification and repair of DNA lesions. LexA-repressed transcription of a norfloxacin-triggered SOS response was measured by detecting an increase in RecA-GFP fusion protein fluorescence in an E. coli recombinant model. The compounds of the disclosure inhibited RecA-GFP induction and presumably, the concurrent SOS response. Inhibition of RecA-GFP expression correlated with an increase in cell death, most likely as a result of ALD activation. Sub-potent concentrations of Polymixin E were used to facilitate entry of the compounds into cells.
E. coli MG1655 was grown from a glycerol stock by placing a small volume of cells onto a MHA plate. The MHA plate was incubated overnight at 37° C. A single colony was subsequently used to inoculate MHB+10 μg/mL kanamycin to obtain a bacterial broth suspension. This was grown in at 37° C. on a rotary shaking incubator (100 rpm) for 12 hours. The bacterial cell concentration was adjusted to ˜5×10^5 colony forming units per milliliter (CFU/mL) in MHB using optical density at 595 nm. Treated cells with polymyxin E (PME) or norfloxacin (in μg/ml) at indicated concentrations for 30 minutes at 37° C. and then added a compound of the disclosure at indicated micromolar concentrations. Incubated for 3.5 hours at 37° C. Cell samples were read on the flow cytometer to detect (green fluorescent) RLU RecA expression and/or shutdown.
E. coli MG1655 was grown from a glycerol stock by placing a small volume of cells onto a MHA plate. The MHA plate was incubated overnight at 37° C. A single colony was subsequently used to inoculate MHB+10 μg/mL kanamycin to obtain a bacterial broth suspension. The MHB broth suspension was grown at 37° C. on a rotary shaking incubator (100 rpm) for 12 hours. The bacterial cell concentration was adjusted to ˜5×10^5 CFU/mL in MHB using OD at 595 nm.
Cells were treated with 0.03 μg/mL and 0.06 μg/mL norfloxacin for 30 minutes at 37° C. Then, 100 μM of the compounds were added. The cells were incubated for 3.5 hours at 37° C. 200 μL aliquots were removed and read by a flow cytometer to detect RecA production and/or shutdown. The cells were incubated for an additional 18 hours at 37° C. to assess overall toxicity.

[3] = tested on: A. baumannii ATCC BAA-1797; assay: MIC on A. baumannii ATCC BAA-1797; conditions: Acinetobacter baumannii
Experimental: A. baumannii: A. baumannii ATCC BAA-1797 was grown from a glycerol stock by placing a small volume of cells onto a MHA plate. The MHA plate was incubated overnight at 37° C. A single colony was used to inoculate MHB to obtain a bacterial broth suspension. The MHB broth suspension was grown at 37° C. on a rotary shaking incubator (100 rpm) for 12 hours. The bacterial cell concentration was adjusted to ˜5×10^5 CFU/mL in MHB or MHB+10%, 20% or 40% FBS using OD at 595 nm. 500 μL aliquots of the adjusted bacterial cell suspension were placed into borosilicate glass tubes. The cell suspensions were treated with a compound of interest, and the treatments were serially diluted two-fold. The culture tubes were incubated for 18 hours at 37° C. Efficacy was either assessed visually or by adding 10% v/v MTT (5 mg/mL stock) after the 18 hour incubation period. The cell suspensions were subsequently incubated for 10 minutes to allow the MTT reagent to carry out the colorimetric reaction. The OD was read at 595 nm.

[4] = tested on: UmuC (error-prone polymerase); assay: UmuC gene expression by rtPCR in S. aureus; conditions: sub-inhibitory norfloxacin
Source text: RecA and error-prone polymerase subunit UmuC transcripts were quantitatively measured using rtPCR in S. aureus. S. aureus was challenged with sub-inhibitory concentrations of DNA-damaging norfloxacin.

A. baumannii ATCC 1515 = assay: Membrane depolarization detected by DiOC2(3); conditions: 1xMIC; 20 μM CCCP; 25 minutes
A. baumannii ATCC 15151 [5] = assay: Filamentation with ciprofloxacin and Compound 25 on A. baumannii; conditions: 18 hours
Experimental: A. baumannii ATCC 15151: […] The culture tubes were incubated for 18 hours at 37° C. After 18 hours incubation, took 3 μL of cells from each well and plated on microscope slide to observe the following: […]

A. baumannii ATCC 15151 [6] = assay: DNA degradation (agarose gel), drug-sensitive strain; conditions: 1.5% H2O2, 10 μg/mL ciprofloxacin, 100 μM Compound 25; 3 hours
[7] = 10 μM melittin, 6, 12, 24, 100 μM Compound 25, 30 minutes
[8] = 0 h, read-out: Initial MIC Day 0

Compound: polymyxin E [PME]
- cell viability after 16 hours of treatment [1]: cells were still viable
- outer membrane disruption (β-lactamase leakage, nitrocefin colour) (E. coli pUC18): high concentration of β-lactamase in the supernatant
- inner membrane disruption (GUS fluorescence) (E. coli pNMT41; [7]): disrupt inner membrane
- inner membrane disruption (GUS fluorescence) (E. coli pNMT41; separate experiment, 12.5 μM Compound 14, 45 minutes): disrupts inner membrane

Compound: CC[C@H](C)[C@H](NC(=O)CN)C(=O)NCC(=O)N[C@@H](C)C(=O)N[C@H](C(=O)N[C@@H](CC(C)C)C(=O)N[C@@H](CCCCN)C(=O)N[C@H](C(=O)N[C@@H](CC(C)C)C(=O)N[C@H](C(=O)N[C@H](C(=O)NCC(=O)N[C@@H](CC(C)C)C(=O)N1CCC[C@H]1C(=O)N[C@@H](C)C(=O)N[C@@H](CC(C)C)C(=O)N[C@H](C(=O)N[C@@H](CO)C(=O)N[C@@H](Cc1c[nH]c2ccccc12)C(=O)N[C@H](C(=O)N[C@@H](CCCCN)C(=O)N[C@@H](CCCNC(=N)N)C(=O)N[C@@H](CCCCN)C(=O)N[C@@H](CCCNC(=N)N)C(=O)N[C@@H](CCC(N)=O)C(=O)N[C@@H](CCC(N)=O)C(N)=O)[C@@H](C)CC)[C@@H](C)CC)[C@@H](C)O)[C@@H](C)O)C(C)C)C(C)C [Melittin, melittin]
- outer membrane disruption (β-lactamase leakage, nitrocefin colour) (E. coli pUC18): high concentration of β-lactamase in the supernatant
- inner membrane disruption (GUS fluorescence) (E. coli pNMT41; [7]): disrupt inner membrane

Compound: Brc1ccc(/N=N/c2c[nH]c3ccccc23)cc1 [Compound 47, (E)-3-((4-bromophenyl)diazenyl)-1H-indole]
- MIC (S. aureus; [8]): 4 µM (≈ 1.2 µg/mL)
- MIC (S. aureus; read-out: Final MIC Day 32): 4 µM (≈ 1.2 µg/mL)
- killing of E. coli [2]: killed E. coli
- SOS response (RecA-GFP induction) [2]: inhibited the SOS response

Compound: COc1ccc(/N=N/c2c(-c3ccc(OC)cc3)[nH]c3ccccc23)cc1 [Compound 46, (E)-2-(4-methoxyphenyl)-3-((4-methoxyphenyl)diazenyl)-1H-indole]
- MIC ([3]; ATCCBAA1797, 18 h, read-out: MIC in the presence of 40% FBS, A. baumannii ATCC BAA-1797, 40% FBS): > 100 µM
- MIC ([3]; ATCCBAA1797, A. baumannii ATCC BAA-1797, absence of serum, read-out: MIC in the absence of serum): > 100 µM
- MIC (S. aureus; [8]): 1 to 2 µM (≈ 0.357 to 0.715 µg/mL)
- MIC (S. aureus; read-out: Final MIC Day 32): 1 to 2 µM (≈ 0.357 to 0.715 µg/mL)
- UmuC (error-prone polymerase) gene expression [4]: transcriptional inhibition

Compound: N#CC(C#N)=NNc1cccc(Cl)c1 [CCCP, reference compound]
- cell membrane depolarization (A. baumannii ATCC 1515): depolarized the cell membrane

Compound: Clc1ccc(Oc2c(-c3ccc(Cl)cc3)[nH]c3ccccc23)cc1 [Compound 49, 3-(4-chlorophenoxy)-2-(4-chlorophenyl)-1H-indole]
- MIC (S. aureus; [8]): 2 µM (≈ 0.708 µg/mL)
- MIC (S. aureus; read-out: Final MIC Day 32): 1 µM (≈ 0.354 µg/mL)
- killing of E. coli [2]: killed E. coli
- SOS response (RecA-GFP induction) [2]: inhibited the SOS response

Compound: O=C(O)c1cn(C2CC2)c2cc(N3CCNCC3)c(F)cc2c1=O [Ciprofloxacin, reference compound]
- cell morphology and growth (A. baumannii ATCC 15151 [5]; 125 ng/mL ciprofloxacin): largely elongated in morphology and growth inhibition was observed
- cell morphology and growth (A. baumannii ATCC 15151 [5]; single agent: 50 ng/mL ciprofloxacin or […] Compound 25): slightly elongated and some growth inhibition was observed

Compound: OO [Compound H2O2, hydrogen peroxide, reference compound]
- DNA degradation (A. baumannii ATCC 15151 [6]): degraded DNA completely
